The text below walks through data of ChEMBL document CHEMBL1132534, “Predicting relative binding free energies of tacrine-huperzine A hybrids as inhibitors of acetylcholinesterase” (J Med Chem, 1999).

For this experiment, the target named is Acetylcholinesterase (Homo sapiens) (UniProt P22303). As to the kind of experiment: Inhibitory activity against acetylcholinesterase compared to the IC50 of (-)-9M-HTH.
Chain of Acetylcholinesterase (Homo sapiens) (P22303 whole entry): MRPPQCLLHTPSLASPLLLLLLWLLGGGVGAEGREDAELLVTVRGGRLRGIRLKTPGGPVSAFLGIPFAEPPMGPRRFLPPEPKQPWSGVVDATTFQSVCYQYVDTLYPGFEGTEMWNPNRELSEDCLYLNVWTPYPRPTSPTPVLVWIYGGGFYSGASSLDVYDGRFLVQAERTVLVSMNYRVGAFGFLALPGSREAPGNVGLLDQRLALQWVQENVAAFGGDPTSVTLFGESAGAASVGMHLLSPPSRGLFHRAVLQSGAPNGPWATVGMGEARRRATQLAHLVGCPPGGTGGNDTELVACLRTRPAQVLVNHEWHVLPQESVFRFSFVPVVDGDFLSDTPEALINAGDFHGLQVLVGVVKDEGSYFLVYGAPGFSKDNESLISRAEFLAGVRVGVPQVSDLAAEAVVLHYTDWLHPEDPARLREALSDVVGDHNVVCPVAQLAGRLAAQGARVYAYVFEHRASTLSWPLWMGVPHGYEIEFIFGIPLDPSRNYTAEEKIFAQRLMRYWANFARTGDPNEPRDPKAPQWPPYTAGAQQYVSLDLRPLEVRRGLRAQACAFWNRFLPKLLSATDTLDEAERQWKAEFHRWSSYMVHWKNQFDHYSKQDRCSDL

On to `CC1=C[C@@H]2Cc3nc4cc(F)ccc4c(N)c3[C@H](C1)C2`, for which the Fold IC50 was 15.
